Assay results as given in patent US9994570B2, “Bridged diazepane orexin receptor antagonists” (MERCK SHARP & DOHME CORP., priority 2014, dated 2018).

What was measured:
[1] = molecular target: T1, rat orexin-1 receptor (Rattus norvegicus, UniProt P56718); assay: FLIPR Ca2+ flux assay, OX1R; type: cell-based; conditions: CHO cells expressing the rat orexin-1 receptor; agonist 70 pM Ala-6,12 orexin-A
T1 construct: expressed in transfected cells; host or cells: CHO cells (grown under G418 selection)
T1 sequence (P56718 1-416): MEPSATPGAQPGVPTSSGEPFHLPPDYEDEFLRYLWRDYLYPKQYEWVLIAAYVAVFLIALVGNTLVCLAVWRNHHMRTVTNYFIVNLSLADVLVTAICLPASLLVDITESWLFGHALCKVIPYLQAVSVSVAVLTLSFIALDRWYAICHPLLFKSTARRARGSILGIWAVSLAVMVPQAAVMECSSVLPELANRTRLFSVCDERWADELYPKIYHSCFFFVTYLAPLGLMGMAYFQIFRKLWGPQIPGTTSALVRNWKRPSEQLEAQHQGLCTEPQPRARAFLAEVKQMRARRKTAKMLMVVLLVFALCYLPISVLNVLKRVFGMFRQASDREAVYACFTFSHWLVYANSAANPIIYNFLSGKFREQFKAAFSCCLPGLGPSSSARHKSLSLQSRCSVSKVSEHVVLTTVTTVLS
Method: (§1) The utility of the compounds in accordance with the present invention as orexin receptor OX1R and/or OX2R antagonists may be readily determined without undue experimentation by methodology well known in the art, including the “FLIPR Ca^2+ Flux Assay” (Okumura et al., Biochem. Biophys. Res. Comm. 280:976-981, 2001). In a typical experiment the OX1 and OX2 receptor antagonistic activity of the compounds of the present invention was determined in accordance with the following experimental method. For intracellular calcium measurements, Chinese hamster ovary (CHO) cells expressing the rat orexin-1 receptor or the human orexin-2 receptor, are grown in Iscove's modified DMEM containing 2 mM L-glutamine, […], 1% hypoxanthine-thymidine supplement, 100 U/ml penicillin, 100 μg/ml streptomycin and 10% heat-inactivated fetal calf serum (FCS). The cells are seeded at 20,000 cells/well into Becton-Dickinson black 384-well clear bottom sterile plates coated with poly-D-lysine. All reagents were from GIBCO-Invitrogen Corp. The seeded plates are incubated overnight at 37° C. and 5% CO2. Ala-6,12 human orexin-A as the agonist is prepared as a 1 mM stock solution in 1% bovine serum albumin (BSA) and diluted in assay buffer (HBSS containing 20 mM HEPES, 0.1% BSA and 2.5 mM probenecid, pH7.4) for use in the assay at a final concentration of 70 pM. Test compounds are prepared as 10 mM stock solution in DMSO, then diluted in 384-well plates, first in DMSO, then assay buffer. On the day of the assay, cells are washed 3 times with 100 μl assay buffer and then incubated for 60 min (37° C., 5% CO2) in 60 μl assay buffer containing 1 μM Fluo-4AM ester, 0.02% pluronic acid, and 1% BSA. The dye loading solution is then aspirated and cells are washed 3 times with 100 μl assay buffer. 30 μl of that same buffer is left in each well. Within the Fluorescent Imaging Plate Reader (FLIPR, Molecular Devices), test compounds are added to the plate in a volume of 25 μl, incubated for 5 min and finally 25 μl of agonist is added. Fluorescence is measured for each well at 1 second intervals for 5 minutes and the height of each fluorescence peak is compared to the height of the fluorescence peak induced by 70 pM Ala-6,12 orexin-A with buffer in place of antagonist. For each antagonist, IC50 value (the concentration of compound needed to inhibit 50% of the agonist response) is determined. Alternatively, compound potency can be assessed by a radioligand binding assay (described in Bergman et. al. Bioorg. Med. Chem. Lett. 2008, 18, 1425-1430) in which the inhibition constant (Ki) is determined in membranes prepared from CHO cells expressing either the OX1 or OX2 receptor. The intrinsic orexin receptor antagonist activity of a compound which may be used in the present invention may be determined by these assays.

[2] = molecular target: T2, human orexin-2 receptor (Homo sapiens, UniProt O43614); assay: FLIPR Ca2+ flux assay, OX2R; type: cell-based; conditions: for IC50: CHO cells expressing the human orexin-2 receptor, agonist 70 pM Ala-6,12 orexin-A; for Fold Selective: OX1R FLIPR / OX2R FLIPR
T2 construct: expressed in transfected cells; host or cells: CHO cells (grown under G418 selection)
T2 sequence (O43614 1-444): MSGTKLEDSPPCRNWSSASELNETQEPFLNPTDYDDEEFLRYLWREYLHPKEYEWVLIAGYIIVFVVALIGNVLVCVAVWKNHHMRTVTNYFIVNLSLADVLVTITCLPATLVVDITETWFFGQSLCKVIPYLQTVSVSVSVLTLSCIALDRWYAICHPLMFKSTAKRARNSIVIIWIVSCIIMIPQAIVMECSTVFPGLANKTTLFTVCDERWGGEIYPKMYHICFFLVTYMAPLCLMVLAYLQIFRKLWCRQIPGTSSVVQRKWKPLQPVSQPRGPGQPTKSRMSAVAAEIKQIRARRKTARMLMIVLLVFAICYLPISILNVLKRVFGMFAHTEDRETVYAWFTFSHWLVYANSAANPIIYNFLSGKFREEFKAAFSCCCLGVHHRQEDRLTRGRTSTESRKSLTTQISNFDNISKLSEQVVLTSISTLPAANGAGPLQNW
Method: as §1

[3] = molecular target: T2, human orexin-2 receptor; conditions: comparison compound disclosed in U.S. Pat. No. 8,685,961; cited from earlier work

Compound | IC50 [1] [nM] | IC50 [2] [nM] | Fold Selective [2] | selectivity between the orexin-1 receptor and the orexin-2 receptor [3]
Cc1cc(C)nc(N2CC3CC2CN(C(=O)c2cccnc2OCC2CCC2)C3)n1 (stereo not shown) [Example 42, 3-{[2-(cyclobutylmethoxy)pyridin-3-yl]carbonyl}-6-(4,6-dimethylpyrimidin-2-yl)-3,6-diazabicyclo[3.2.1]octane] | 628 | 15 | 42 | –
Cc1cc(C)nc(N2CC3CC2CN(C(=O)c2cccnc2OCC(F)(F)C(F)F)C3)n1 (stereo not shown) [Example 43, 6-(4,6-dimethylpyrimidin-2-yl)-3-{[2-(2,2,3,3-tetrafluoropropoxy)pyridin-3-yl]carbonyl}-3,6-diazabicyclo[3.2.1]octane] | 206 | 5 | 41 | –
Cc1cc(C)nc(N2CC3CC2CN(C(=O)c2cccnc2OCCC(F)(F)F)C3)n1 (stereo not shown) [Example 44, 6-(4,6-dimethylpyrimidin-2-yl)-3-{[2-(3,3,3-trifluoropropoxy)pyridin-3-yl]carbonyl}-3,6-diazabicyclo[3.2.1]octane] | 932 | 21 | 44 | –
Cc1cc(C)nc(N2CC3CC2CN(C(=O)c2cccnc2OCC(C)O)C3)n1 (stereo not shown) [Example 45, 1-[(3-{[6-(4,6-dimethylpyrimidin-2-yl)-3,6-diazabicyclo[3.2.1]oct-3-yl]carbonyl}pyridin-2-yl)oxy]propan-2-ol] | > 10000 | 90 | >111 | –
CO[C@@H]1CCN(c2ncccc2C(=O)N2CC3CC(C2)N(c2nc(C)cc(C)n2)C3)C1 (stereo partly drawn) [Example 46, (6-(4,6-dimethylpyrimidin-2-yl)-3,6-diazabicyclo[3.2.1]octan-3-yl)(2-((R)-3-methoxypyrrolidin-1-yl)pyridin-3-yl)methanone] | > 10000 | 90 | >111 | –
Cc1cc(C)nc(N2CC3CC2CN(C(=O)c2nccnc2OCC2CC2)C3)n1 (stereo not shown) [Example 48, (3-(cyclopropylmethoxy)pyrazin-2-yl)(6-(4,6-dimethylpyrimidin-2-yl)-3,6-diazabicyclo[3.2.1]octan-3-yl)methanone] | 3830 | 37 | 103 | –
Cc1cc(C)nc(N2CC3CC2CN(C(=O)c2nccnc2OCC(F)F)C3)n1 (stereo not shown) [Example 49, 3-{[3-[2,2-difluoroethoxy)pyrazin-2-yl]carbonyl}-6-(4,6-dimethylpyrimidin-2-yl)-3,6-diazabicyclo[3.2.1]octane] | 3860 | 33 | 117 | –
Cc1cc(C)nc(N2CC3CC2CN(C(=O)c2nccnc2OCC(F)(F)F)C3)n1 (stereo not shown) [Example 50, 6-(4,6-dimethylpyrimidin-2-yl)-3-{[3-(2,2,2-trifluoroethoxy)pyrazin-2-yl]carbonyl}-3,6-diazabicyclo[3.2.1]octane] | > 10000 | 36 | >278 | –
Cc1cc(C)nc(N2CC3CC2CN(C(=O)c2nccnc2OCC(F)(F)C(F)F)C3)n1 (stereo not shown) [Example 51, (6-(4,6-dimethylpyrimidin-2-yl)-3,6-diazabicyclo[3.2.1]octan-3-yl)(3-(2,2,3,3-tetrafluoropropoxy)pyrazin-2-yl)methanone] | 2690 | 24 | 112 | –
Cc1cc(C)nc(N2CC3CC2CN(C(=O)c2nccnc2OC(C)C)C3)n1 (stereo not shown) [Example 52, 6-(4,6-dimethylpyrimidin-2-yl)-3-{[3-(1-methylethoxy)pyrazin-2-yl]carbonyl}-3,6-diazabicyclo[3.2.1]octane] | > 10000 | 60 | >167 | –
Cc1cc(C)nc(N2CC3CC2CN(C(=O)c2nccnc2OCC(C)(F)F)C3)n1 (stereo not shown) [Example 53, (3-(2,2-difluoropropoxy)pyrazin-2-yl)(6-(4,6-dimethylpyrimidin-2-yl)-3,6-diazabicyclo[3.2.1]octan-3-yl)methanone] | 6450 | 39 | 165 | –
Cc1ccc(-n2nccn2)c(C(=O)N2CCCN(c3nc4ccccc4o3)CC2)c1 [Example B-3] | – | – | – | greater selectivity for the orexin-1 receptor than for the orexin-2 receptor
